Laboratory results published in ChEMBL document CHEMBL1137354, “Potent, selective, and orally efficacious antagonists of melanin-concentrating hormone receptor 1” (J Med Chem, 2006).

Key:
[1] = Oral bioavailability in rat at 3 mg/kg, iv and 10 mg/kg, po; type: ADME, organism-based; details: in vivo
[2] = Total clearance in rat at 3 mg/kg, iv and 10 mg/kg, po; type: ADME, organism-based; details: in vivo
[3] = Volume of distribution in rat at 3 mg/kg, iv and 10 mg/kg, po; type: ADME, organism-based; details: in vivo, read-out: Vss
[4] = Half life in rat at 3 mg/kg, iv; type: ADME, organism-based; design: dose 3 mg/kg, route intravenous; details: in vivo
[5] = biological target: Melanin-concentrating hormone receptor 1 (Homo sapiens, UniProt Q99705); test: Antagonist activity against human MCHR1 expressed in CHO cells by Gal4/Elk1-Luc reporter assay; type: functional, cell-based
Chain of Melanin-concentrating hormone receptor 1 (Q99705 whole entry, the tested form may be a part): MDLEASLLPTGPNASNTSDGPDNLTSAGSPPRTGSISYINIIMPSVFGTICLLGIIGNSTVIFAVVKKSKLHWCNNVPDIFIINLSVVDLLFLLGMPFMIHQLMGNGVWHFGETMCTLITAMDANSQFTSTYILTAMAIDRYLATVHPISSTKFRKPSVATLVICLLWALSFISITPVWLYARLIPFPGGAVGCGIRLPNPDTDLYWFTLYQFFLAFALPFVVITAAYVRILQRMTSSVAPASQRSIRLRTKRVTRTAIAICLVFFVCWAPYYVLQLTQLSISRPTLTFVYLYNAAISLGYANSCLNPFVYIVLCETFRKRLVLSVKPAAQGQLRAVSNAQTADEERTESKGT

Mus musculus [6] = test: Reduction in body weight of DIO AKR/J mouse relative to control at 10 mg/kg/day, po after 26 days; type: functional; design: scale not given: the % may be the effect or the level left
Mus musculus [7] = test: Concentration in DIO AKR/J mouse serum at 1 mg/kg, po; type: ADME, organism-based; design: dose 1 mg/kg, route oral; details: in vivo
Mus musculus [8] = test: Concentration in DIO AKR/J mouse serum at 10 mg/kg, po; type: ADME, organism-based; design: dose 10 mg/kg, route oral; details: in vivo
Mus musculus [9] = test: Reduction in body weight of DIO AKR/J mouse relative to control at 3 mg/kg/day, po after 26 days; type: functional; design: scale not given: the % may be the effect or the level left
Mus musculus [10] = test: Concentration in DIO AKR/J mouse brain at 1 mg/kg, po; type: ADME, organism-based; design: dose 1 mg/kg, route oral; details: in vivo
Mus musculus [11] = test: Reduction in body weight of DIO AKR/J mouse relative to control at 1 mg/kg/day, po after 26 days; type: functional; design: scale not given: the % may be the effect or the level left
Mus musculus [12] = test: Concentration in DIO AKR/J mouse brain at 3 mg/kg, po; type: ADME, organism-based; design: dose 3 mg/kg, route oral; details: in vivo
[13] = Ratio of drug concentration in brain to serum in DIO AKR/J mouse at 10 mg/kg, po
[14] = Ratio of drug concentration in brain to serum in DIO AKR/J mouse at 1 mg/kg, po
Mus musculus [15] = test: Concentration in DIO AKR/J mouse brain at 10 mg/kg, po; type: ADME, organism-based; design: dose 10 mg/kg, route oral; details: in vivo
Mus musculus [16] = test: Concentration in DIO AKR/J mouse serum at 3 mg/kg, po; type: ADME, organism-based; design: dose 3 mg/kg, route oral; details: in vivo
[17] = Ratio of drug concentration in brain to serum in DIO AKR/J mouse at 3 mg/kg, po

Structure (SMILES)	IC50 [5] [nM]	also measured
O=c1c2sc(-c3ccc(Cl)cc3)cc2ncn1-c1ccc2c(c1)OC[C@H](CN1CCCC1)O2	24	bioavailability [1]: 65%; clearance [2]: 66 mL/min/kg; Vd [3]: 22 L/kg; half-life [4]: 6.1 h
CCN1CCN(Cc2ccc3cc(-n4cnc5cc(-c6ccc(Cl)cc6)sc5c4=O)ccc3n2)CC1	6.2	
CN1CCN(CC2CNc3cc(-n4cnc5cc(-c6ccc(Cl)cc6)sc5c4=O)ccc3O2)CC1 (configuration not stated)	3.5	
O=c1c2sc(-c3ccc(Cl)cc3)cc2ncn1-c1ccc2c(c1)NCC(CN1CCOCC1)O2 (configuration not stated)	8.5	
CN(C)C[C@H]1COc2cc(-n3cnc4cc(-c5ccc(Cl)cc5)sc4c3=O)ccc2O1	25	
CN(Cc1ccc2cc(-n3cnc4cc(-c5ccc(Cl)cc5)sc4c3=O)ccc2n1)c1ccccc1	87	
O=c1c2sc(-c3ccc(Cl)cc3)cc2ncn1-c1ccc2nc(CN3CCC(c4ccc(F)cc4)CC3)ccc2c1	3.1	bioavailability [1]: 30%; clearance [2]: 2.9 mL/min/kg; Vd [3]: 2.3 L/kg; half-life [4]: 16 h
O=c1c2sc(-c3ccc(C(F)(F)F)cc3)cc2ncn1-c1ccc2nc(CN3CCOCC3)ccc2c1	36	
O=c1c2sc(-c3ccc(Cl)cc3)cc2ncn1-c1ccc2nc(CO)ccc2c1	3.5	
O=c1c2sc(-c3cccc(Cl)c3)cc2ncn1-c1ccc2nc(CN3CCOCC3)ccc2c1	3980	
O=c1c2sc(-c3ccc(Cl)cc3)cc2ncn1-c1ccc2nc(CN3CCC(N4CCCC4)CC3)ccc2c1	5.6	
CN(C)CC1CN(S(=O)(=O)c2ccccc2)c2cc(-n3cnc4cc(-c5ccc(Cl)cc5)sc4c3=O)ccc2O1 (configuration not stated)	6920	
O=c1c2sc(-c3ccc(Cl)cc3)cc2ncn1-c1ccc2c(c1)NCC(CN1CC[C@@H](O)C1)O2 (some centres not stated)	3.4	
O=c1c2sc(-c3ccc(Cl)cc3)cc2ncn1-c1ccc2nc(CN3CCC(CCN4CCCC4)CC3)ccc2c1	1.5	
CN(C)CC1COc2cc(-n3cnc4cc(-c5ccc(Cl)cc5)sc4c3=O)ccc2O1 (configuration not stated)	7.7	
O=c1c2sc(-c3ccc(Cl)cc3)cc2ncn1-c1ccc2c(c1)NCC(CN1CC[C@H](O)C1)O2 (some centres not stated)	5.3	
O=c1c2sc(-c3ccc(Cl)cc3)cc2ncn1-c1ccc2nc(CN3CCCCC3)ccc2c1	0.89	
O=c1c2sc(-c3ccccc3)cc2ncn1-c1ccc2nc(CN3CCOCC3)ccc2c1	794	
N#Cc1ccc(-c2cc3ncn(-c4ccc5nc(CN6CCOCC6)ccc5c4)c(=O)c3s2)cc1	478	
O=c1c2sc(-c3ccc(Cl)cc3)cc2ncn1-c1ccc2nc(Cn3ccnc3)ccc2c1	2	
O=c1c2sc(-c3ccc(Cl)cc3)cc2ncn1-c1ccc2c(c1)OC[C@@H](CN1CCCC1)O2	7	

Structure (SMILES)	IC50 [5] [nM]	also measured
O=c1c2sc(-c3ccc(Cl)cc3)cc2ncn1-c1ccc2nc(CN3CCOCC3)ccc2c1	4.9	
O=c1c2sc(-c3ccc(Cl)cc3)cc2ncn1-c1ccc2nc(CN3CCN(c4ccccc4)CC3)ccc2c1	3.8	
CN(C)CC1CNc2cc(-n3cnc4cc(-c5ccc(Cl)cc5)sc4c3=O)ccc2O1 (configuration not stated)	3.2	bioavailability [1]: 75%; clearance [2]: 88 mL/min/kg; Vd [3]: 27 L/kg; half-life [4]: 8 h
CC(C)(C)c1ccc(-c2cc3ncn(-c4ccc5nc(CN6CCOCC6)ccc5c4)c(=O)c3s2)cc1	501	
CN(C)Cc1ccc2cc(-n3cnc4cc(-c5ccc(Cl)cc5)sc4c3=O)ccc2n1	0.74	
O=c1c2sc(-c3ccc(Cl)cc3)cc2ncn1-c1ccc2nc(CN3CCC(c4ccccc4)CC3)ccc2c1	1.3	bioavailability [1]: 19%; clearance [2]: 11 mL/min/kg; Vd [3]: 4.3 L/kg; half-life [4]: 8 h
COc1ccc(-c2cc3ncn(-c4ccc5nc(CN6CCOCC6)ccc5c4)c(=O)c3s2)cc1	31	
O=c1c2sc(-c3ccc(Cl)cc3)cc2ncn1-c1ccc2ncccc2c1	63	
O=c1c2sc(-c3ccc(Br)cc3)cc2ncn1-c1ccc2nc(CN3CCOCC3)ccc2c1	40	
O=c1c2sc(-c3ccccc3Cl)cc2ncn1-c1ccc2nc(CN3CCOCC3)ccc2c1	1260	
O=c1c2sc(-c3ccc(Cl)cc3)cc2ncn1-c1ccc2nc(CN3CCCC3)ccc2c1	1	
O=c1c2sc(-c3ccc(Cl)cc3)cc2ncn1-c1ccc2nc(CN3CCC(c4ccc(C(F)(F)F)cc4)CC3)ccc2c1	6.1	bioavailability [1]: 18%; clearance [2]: 3.7 mL/min/kg; Vd [3]: 1.1 L/kg; half-life [4]: 8.5 h
CCC(C)c1ccc(-c2cc3ncn(-c4ccc5nc(CN6CCOCC6)ccc5c4)c(=O)c3s2)cc1 (configuration not stated)	200	
CN1CCN(Cc2ccc3cc(-n4cnc5cc(-c6ccc(Cl)cc6)sc5c4=O)ccc3n2)CC1	3.1	Activity (Mus musculus [6]): 16.9%; Drug uptake (Mus musculus [7]): 44 ng/mL; Drug uptake (Mus musculus [8]): 414 ng/mL; Activity (Mus musculus [9]): 9.4%; bioavailability [1]: 98%; clearance [2]: 39 mL/min/kg; Drug uptake (Mus musculus [10]): 1421 ng/g; Activity (Mus musculus [11]): 4.8%; Vd [3]: 19 L/kg; Drug uptake (Mus musculus [12]): 5508 ng/g; half-life [4]: 7.7 h; Kp [13]: 31; Kp [14]: 31; Drug uptake (Mus musculus [15]): 13093 ng/g; Drug uptake (Mus musculus [16]): 178 ng/mL; Kp [17]: 31
CN(C)CC1CN(S(C)(=O)=O)c2cc(-n3cnc4cc(-c5ccc(Cl)cc5)sc4c3=O)ccc2O1 (configuration not stated)	4170	
O=c1c2sc(-c3ccc(Cl)cc3)cc2ncn1-c1ccc2c(c1)NCC(CN1CCCC1)O2 (configuration not stated)	2.3	
O=c1c2sc(-c3ccc(F)cc3)cc2ncn1-c1ccc2nc(CN3CCOCC3)ccc2c1	501	
O=c1c2sc(-c3ccc(Cl)cc3)cc2ncn1-c1ccc2nc(CN3CCN(CCCN4CCOCC4)CC3)ccc2c1	37	
CN(C)C[C@@H]1COc2cc(-n3cnc4cc(-c5ccc(Cl)cc5)sc4c3=O)ccc2O1	3.2	
O=c1c2sc(-c3ccc(Cl)cc3)cc2ncn1-c1ccc2nc(CN3CCN(CCN4CCOCC4)CC3)ccc2c1	19	
